Source: the supplement of paper PMC9663587

Columns and labels:
[1] = compound: COc1cc2nccc(Oc3ccc(NC(=O)C4(C(=O)Nc5ccc(F)cc5)CC4)cc3)c2cc1OC [Cabozantinib]
[2] = compound: CC(=O)O[C@H]1C(=O)[C@@]2(C)[C@H]([C@H](OC(=O)c3ccccc3)[C@]3(O)C[C@H](OC(=O)[C@H](O)[C@@H](NC(=O)c4ccccc4)c4ccccc4)C(C)=C1C3(C)C)[C@]1(OC(C)=O)CO[C@@H]1C[C@@H]2O [Paclitaxel]
[3] = compound: CC(=O)c1c(C)c2cnc(Nc3ccc(N4CCN(CCOCCOCCOCCNC(=O)COc5cccc6c5C(=O)N(C5CCC(=O)NC5=O)C6=O)CC4)cn3)nc2n(C2CCCC2)c1=O [BSJ-03-123]
[4] = compound: CCc1cnn2c(NCc3ccc[n+]([O-])c3)cc(N3CCCC[C@H]3CCO)nc12
[5] = compound: O=C(CCCCCCC(=O)Nc1ccccc1)NO [Vorinostat]
[6] = compound: CC1(CCN(CC1)C2=CN=C(C(=N2)N)C3=C(C(=CC=C3)Cl)Cl)N [SHP099]
[7] = compound: Nc1cc(C(F)(F)F)c(-c2cc(N3CCOCC3)nc(N3CCOCC3)n2)cn1 [Buparlisib/NVP-BKM120]
[8] = compound: CCN1CCN(Cc2ccc(Nc3ncc(F)c(-c4cc(F)c5nc(C)n(C(C)C)c5c4)n3)nc2)CC1
[9] = compound: NC1(C(=O)N[C@@H](CCO)c2ccc(Cl)cc2)CCN(c2nc[nH]c3nccc2-3)CC1 [AZD5363]
[10] = compound: CN1CC[C@H](c2c(O)cc(O)c3c(=O)cc(-c4ccccc4Cl)oc23)[C@H](O)C1 [Flavopiridol]; assay: GR value, 72 h; higher = faster growth (1 = untreated, <0 = killing);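 further: breast cancer and non-malignant breast epithelial lines, nine half-log doses, viable cells counted by Hoechst and LIVE/DEAD dye imaging versus time-zero plates and DMSO controls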
[11] = compound: CCc1cnn2c(NCc3ccc[n+]([O-])c3)cc(N3CCCC[C@H]3CCO)nc12; assay: as above
[12] = compound: C=CC(=O)Nc1ccc(C(=O)Nc2[nH]nc3c2CN(C(=O)N[C@H](CN(C)C)c2ccccc2)C3(C)C)cc1 [YKL-5-124]; assay: as above
[13] = compound: CN(C)C(=O)c1cc2cnc(Nc3ccc(N4CCNCC4)cn3)nc2n1C1CCCC1 [LEE011/Ribociclib]; assay: as above
[14] = compound: CC(=O)c1c(C)c2cnc(Nc3ccc(N4CCNCC4)cn3)nc2n(C2CCCC2)c1=O; assay: as above
[15] = compound: CN(C)C/C=C/C(=O)Nc1ccc(C(=O)Nc2cccc(Nc3ncc(Cl)c(-c4c[nH]c5ccccc45)n3)c2)cc1 [THZ1]; assay: as above
[16] = compound: CCN1CCN(Cc2ccc(Nc3ncc(F)c(-c4cc(F)c5nc(C)n(C(C)C)c5c4)n3)nc2)CC1; assay: as above
[17] = compound: CN(C)C/C=C/C(=O)Nc1ccc(C(=O)N2CCC[C@@H](Nc3ncc(Cl)c(-c4c[nH]c5ccccc45)n3)C2)cc1 [THZ531]; assay: as above
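Wherever GR50, 72 h is given: breast cancer and non-malignant breast epithelial cell lines, Deep Dye Drop or Dye Drop imaging, nine half-log doses, GR normalized to time-zero plates and DMSO-only controls.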

For UACC893, the “GR50, 72 h” value [1] was greater than 10 µM, the “GR50, 72 h” value [2] was 0.00216 µM and the “GR50, 72 h” value [3] was 1.46 µM. For the same cell line, the “GR50, 72 h” value [4] was 0.017 µM, the “GR50, 72 h” value [5] was 3.72 µM and the “GR50, 72 h” value [6] was greater than 10 µM. The “GR50, 72 h” value [7] was 0.271 µM, the “GR50, 72 h” value [8] was 0.00967 µM and the “GR50, 72 h” value [9] was 0.0291 µM. The GR value ([10]; 0.0001 µM) was 1.02 GR, the GR value ([10]; 0.0003162 µM) was 0.977 GR and the GR value ([10]; 0.001 µM) was 0.945 GR. It also gave a GR value ([10]; 0.003162 µM) of 0.821 GR, a GR value ([10]; 0.01 µM) of 0.866 GR and a GR value ([10]; 0.03162 µM) of 0.822 GR. The GR value ([10]; 0.1 µM) was 0.609 GR, the GR value ([10]; 0.3162 µM) was 0.0303 GR and the GR value ([10]; 1 µM) was -0.465 GR. It also gave a GR value ([11]; 0.0001 µM) of 0.963 GR, a GR value ([11]; 0.0003162 µM) of 0.894 GR and a GR value ([11]; 0.001 µM) of 1 GR. For the same cell line, the GR value ([11]; 0.003162 µM) was 0.997 GR, the GR value ([11]; 0.01 µM) was 0.865 GR and the GR value ([11]; 0.03162 µM) was -0.169 GR. For the same cell line, the GR value ([11]; 0.1 µM) was -0.503 GR, the GR value ([11]; 0.3162 µM) was -0.612 GR and the GR value ([11]; 1 µM) was -0.649 GR. The GR value ([12]; 0.001 µM) was 0.472 GR, the GR value ([12]; 0.003162 µM) was 0.473 GR and the GR value ([12]; 0.01 µM) was 0.363 GR. The GR value ([12]; 0.03162 µM) was 0.342 GR, the GR value ([12]; 0.1 µM) was 0.215 GR and the GR value ([12]; 0.3162 µM) was 0.246 GR. It also gave a GR value ([12]; 1 µM) of 0.219 GR, a GR value ([12]; 3.162 µM) of 0.119 GR and a GR value ([12]; 10 µM) of -0.629 GR. It also gave a GR value ([13]; 0.001 µM) of 0.564 GR, a GR value ([13]; 0.003162 µM) of 0.501 GR and a GR value ([13]; 0.01 µM) of 0.497 GR. The GR value ([13]; 0.03162 µM) was 0.461 GR, the GR value ([13]; 0.1 µM) was 0.494 GR and the GR value ([13]; 0.3162 µM) was 0.422 GR. The GR value ([13]; 1 µM) was 0.473 GR, the GR value ([13]; 3.162 µM) was 0.48 GR and the GR value ([13]; 10 µM) was 0.484 GR. For the same cell line, the GR value ([14]; 0.0003162 µM) was 0.92 GR, the GR value ([14]; 0.001 µM) was 0.914 GR and the GR value ([14]; 0.003162 µM) was 0.79 GR. It also gave a GR value ([14]; 0.01 µM) of 0.671 GR, a GR value ([14]; 0.03162 µM) of 0.422 GR and a GR value ([14]; 0.1 µM) of 0.406 GR. It also gave a GR value ([14]; 0.3162 µM) of 0.366 GR, a GR value ([14]; 1 µM) of 0.358 GR and a GR value ([14]; 3.162 µM) of 0.355 GR. For the same cell line, the GR value ([15]; 0.0001 µM) was 0.991 GR, the GR value ([15]; 0.0003162 µM) was 1.12 GR and the GR value ([15]; 0.001 µM) was 1.07 GR. The GR value ([15]; 0.003162 µM) was 0.882 GR, the GR value ([15]; 0.01 µM) was 0.669 GR and the GR value ([15]; 0.03162 µM) was 0.149 GR. It also gave a GR value ([15]; 0.1 µM) of -0.241 GR, a GR value ([15]; 0.3162 µM) of -0.397 GR and a GR value ([15]; 1 µM) of -0.517 GR. The GR value ([16]; 0.001 µM) was 0.682 GR, the GR value ([16]; 0.003162 µM) was 0.508 GR and the GR value ([16]; 0.01 µM) was 0.42 GR. For the same cell line, the GR value ([16]; 0.03162 µM) was 0.344 GR, the GR value ([16]; 0.1 µM) was 0.305 GR and the GR value ([16]; 0.3162 µM) was 0.272 GR. It also gave a GR value ([16]; 1 µM) of 0.262 GR, a GR value ([16]; 3.162 µM) of 0.241 GR and a GR value ([16]; 10 µM) of -0.088 GR. It also gave a GR value ([17]; 0.0001 µM) of 1.05 GR, a GR value ([17]; 0.0003162 µM) of 1.05 GR and a GR value ([17]; 0.001 µM) of 0.907 GR. The GR value ([17]; 0.003162 µM) was 1.06 GR, the GR value ([17]; 0.01 µM) was 1.08 GR and the GR value ([17]; 0.03162 µM) was 0.743 GR. The GR value ([17]; 0.1 µM) was -0.298 GR, the GR value ([17]; 0.3162 µM) was -0.396 GR and the GR value ([17]; 1 µM) was -0.421 GR.

For ZR751, the “GR50, 72 h” value [1] was greater than 10 µM, the “GR50, 72 h” value [2] was 0.0088 µM and the “GR50, 72 h” value [3] was 3.04 µM. For the same cell line, the “GR50, 72 h” value [4] was 0.035 µM, the “GR50, 72 h” value [5] was 3.55 µM and the “GR50, 72 h” value [6] was greater than 10 µM. The “GR50, 72 h” value [7] was 1.15 µM, the “GR50, 72 h” value [8] was 0.0666 µM and the “GR50, 72 h” value [9] was greater than 10 µM. It also gave a GR value ([10]; 0.0001 µM) of 0.988 GR, a GR value ([10]; 0.0003162 µM) of 0.993 GR and a GR value ([10]; 0.001 µM) of 0.995 GR. It also gave a GR value ([10]; 0.003162 µM) of 0.915 GR, a GR value ([10]; 0.01 µM) of 0.952 GR and a GR value ([10]; 0.03162 µM) of 0.988 GR. For the same cell line, the GR value ([10]; 0.1 µM) was 0.935 GR, the GR value ([10]; 0.3162 µM) was 0.577 GR and the GR value ([10]; 1 µM) was -0.371 GR. The GR value ([11]; 0.0001 µM) was 1.03 GR, the GR value ([11]; 0.0003162 µM) was 1.04 GR and the GR value ([11]; 0.001 µM) was 1.02 GR. For the same cell line, the GR value ([11]; 0.003162 µM) was 0.969 GR, the GR value ([11]; 0.01 µM) was 1.02 GR and the GR value ([11]; 0.03162 µM) was 0.644 GR. The GR value ([11]; 0.1 µM) was -0.456 GR, the GR value ([11]; 0.3162 µM) was -0.359 GR and the GR value ([11]; 1 µM) was -0.434 GR. It also gave a GR value ([12]; 0.001 µM) of 0.57 GR, a GR value ([12]; 0.003162 µM) of 0.342 GR and a GR value ([12]; 0.01 µM) of 0.325 GR. It also gave a GR value ([12]; 0.03162 µM) of 0.282 GR, a GR value ([12]; 0.1 µM) of 0.254 GR and a GR value ([12]; 0.3162 µM) of 0.238 GR. For the same cell line, the GR value ([12]; 1 µM) was 0.239 GR, the GR value ([12]; 3.162 µM) was 0.223 GR and the GR value ([12]; 10 µM) was 0.128 GR. The GR value ([13]; 0.001 µM) was 0.912 GR, the GR value ([13]; 0.003162 µM) was 0.814 GR and the GR value ([13]; 0.01 µM) was 0.881 GR. It also gave a GR value ([13]; 0.03162 µM) of 0.801 GR, a GR value ([13]; 0.1 µM) of 0.812 GR and a GR value ([13]; 0.3162 µM) of 0.667 GR. For the same cell line, the GR value ([13]; 1 µM) was 0.737 GR, the GR value ([13]; 3.162 µM) was 0.603 GR and the GR value ([13]; 10 µM) was 0.351 GR. The GR value ([14]; 0.0003162 µM) was 1.02 GR, the GR value ([14]; 0.001 µM) was 0.998 GR and the GR value ([14]; 0.003162 µM) was 1.03 GR. For the same cell line, the GR value ([14]; 0.01 µM) was 1.02 GR, the GR value ([14]; 0.03162 µM) was 1.02 GR and the GR value ([14]; 0.1 µM) was 0.844 GR. For the same cell line, the GR value ([14]; 0.3162 µM) was 0.719 GR, the GR value ([14]; 1 µM) was 0.637 GR and the GR value ([14]; 3.162 µM) was 0.489 GR. The GR value ([15]; 0.0001 µM) was 1.03 GR, the GR value ([15]; 0.0003162 µM) was 1.02 GR and the GR value ([15]; 0.001 µM) was 0.935 GR. It also gave a GR value ([15]; 0.003162 µM) of 0.967 GR, a GR value ([15]; 0.01 µM) of 0.949 GR and a GR value ([15]; 0.03162 µM) of 0.915 GR. The GR value ([15]; 0.1 µM) was 0.816 GR, the GR value ([15]; 0.3162 µM) was 0.748 GR and the GR value ([15]; 1 µM) was -0.165 GR. It also gave a GR value ([16]; 0.001 µM) of 0.95 GR, a GR value ([16]; 0.003162 µM) of 0.94 GR and a GR value ([16]; 0.01 µM) of 0.843 GR. It also gave a GR value ([16]; 0.03162 µM) of 0.604 GR, a GR value ([16]; 0.1 µM) of 0.461 GR and a GR value ([16]; 0.3162 µM) of 0.366 GR. It also gave a GR value ([16]; 1 µM) of 0.351 GR, a GR value ([16]; 3.162 µM) of 0.309 GR and a GR value ([16]; 10 µM) of 0.38 GR. It also gave a GR value ([17]; 0.0001 µM) of 1.06 GR, a GR value ([17]; 0.0003162 µM) of 0.851 GR and a GR value ([17]; 0.001 µM) of 0.958 GR. For the same cell line, the GR value ([17]; 0.003162 µM) was 0.936 GR, the GR value ([17]; 0.01 µM) was 1.03 GR and the GR value ([17]; 0.03162 µM) was 0.969 GR. The GR value ([17]; 0.1 µM) was 0.991 GR, the GR value ([17]; 0.3162 µM) was 0.856 GR and the GR value ([17]; 1 µM) was -0.208 GR.
